# Laboratory results from article PMC5218480 (PLoS ONE, 2017).
# Test system: MV-4-11 cells
# Assay: Gene expression microarray analysis (Affymetrix PrimeView) and GSEA
# Type: cell-based, human
# Design: RFU PODN (11730768_x_at) / Fold change /veh PODN (11730768_x_at) / RFU LINC00158 (11744669_a_at) / Fold change /veh LINC00158 (11744669_a_at) / RFU DUSP10 (11751237_a_at) / Fold change /veh DUSP10 (11751237_a_at) / RFU ID3 (11757404_x_at) / Fold change /veh ID3 (11757404_x_at) / RFU PLEKHG5 (11737974_s_at) / Fold change /veh PLEKHG5 (11737974_s_at) / RFU LRRC4B (11730491_at) / Fold change /veh LRRC4B (11730491_at) / RFU GIMAP4 (11747438_a_at) / Fold change /veh GIMAP4 (11747438_a_at) / RFU KRT8 (11758183_x_at) / Fold change /veh KRT8 (11758183_x_at) / RFU CNN1 (11734310_a_at) / Fold change /veh CNN1 (11734310_a_at) / RFU VPS37D (11726825_at) / Fold change /veh VPS37D (11726825_at) / RFU C10orf10 (11716522_x_at) / Fold change /veh C10orf10 (11716522_x_at) / RFU KIR2DL2 /// KIR2DL4 /// KIR2DL5A /// KIR2DL5B /// KIR2DS1 /// KIR2DS2 /// KIR2DS3 /// KIR2DS4 /// KIR3DL3 /// KIR3DL3 /// KIR3DS1 (11738374_at) / Fold change /veh KIR2DL2 /// KIR2DL4 /// KIR2DL5A /// KIR2DL5B /// KIR2DS1 /// KIR2DS2 /// KIR2DS3 /// KIR2DS4 /// KIR3DL3 /// KIR3DL3 /// KIR3DS1 (11738374_at) / RFU C1QL1 (11718748_at) / Fold change /veh C1QL1 (11718748_at) / RFU TMPRSS4 (11747572_a_at) / Fold change /veh TMPRSS4 (11747572_a_at) / RFU HAMP (11756126_x_at) / Fold change /veh HAMP (11756126_x_at) / RFU RNFT2 (11725882_a_at) / Fold change /veh RNFT2 (11725882_a_at) / RFU NR4A2 (11747474_a_at) / Fold change /veh NR4A2 (11747474_a_at) / RFU ABCC12 (11746883_a_at) / Fold change /veh ABCC12 (11746883_a_at) / RFU TMEM136 (11760407_x_at) / Fold change /veh TMEM136 (11760407_x_at) / RFU CLDN22 /// WWC2 (11732394_at) / Fold change /veh CLDN22 /// WWC2 (11732394_at) / RFU HLA-DPB1 (11760878_x_at) / Fold change /veh HLA-DPB1 (11760878_x_at) / RFU SPINT1 (11716480_a_at) / Fold change /veh SPINT1 (11716480_a_at) / RFU GAP43 (11754022_s_at) / Fold change /veh GAP43 (11754022_s_at) / RFU A4GNT (11735810_at) / Fold change /veh A4GNT (11735810_at) / RFU PRB3 (11715151_x_at) / Fold change /veh PRB3 (11715151_x_at) / RFU TUBB4B (11761932_at) / Fold change /veh TUBB4B (11761932_at) / RFU CAPN14 (11732068_a_at) / Fold change /veh CAPN14 (11732068_a_at) / RFU TMCC2 (11721928_a_at) / Fold change /veh TMCC2 (11721928_a_at) / RFU IRGQ (11745062_a_at) / Fold change /veh IRGQ (11745062_a_at) / RFU FAM174B (11720279_a_at) / Fold change /veh FAM174B (11720279_a_at) / RFU TMPRSS4 (11748680_a_at) / Fold change /veh TMPRSS4 (11748680_a_at) / RFU FAM212B (11763350_a_at) / Fold change /veh FAM212B (11763350_a_at) / RFU PLEKHG5 (11743358_a_at) / Fold change /veh PLEKHG5 (11743358_a_at) / RFU ZSCAN30 (11745921_a_at) / Fold change /veh ZSCAN30 (11745921_a_at) / RFU CMKLR1 (11741424_a_at) / Fold change /veh CMKLR1 (11741424_a_at) / RFU LOC101060620 /// MAPK8IP1 (11723275_at) / Fold change /veh LOC101060620 /// MAPK8IP1 (11723275_at) / RFU SPTSSB (11747773_x_at) / Fold change /veh SPTSSB (11747773_x_at) / RFU PRSS12 (11739890_at) / Fold change /veh PRSS12 (11739890_at) / RFU BIN1 (11741810_x_at) / Fold change /veh BIN1 (11741810_x_at) / RFU WNT11 (11732464_a_at) / Fold change /veh WNT11 (11732464_a_at) / RFU C10orf10 (11716521_a_at) / Fold change /veh C10orf10 (11716521_a_at) / RFU C5orf56 (11738089_at) / Fold change /veh C5orf56 (11738089_at) / RFU CYB561 (11721691_x_at) / Fold change /veh CYB561 (11721691_x_at) / RFU ANKRD19P (11752326_a_at) / Fold change /veh ANKRD19P (11752326_a_at) / RFU OR2T12 /// OR2T33 /// OR2T8 (11738714_s_at) / Fold change /veh OR2T12 /// OR2T33 /// OR2T8 (11738714_s_at) / RFU VCAN (11748164_a_at) / Fold change /veh VCAN (11748164_a_at) / RFU JSRP1 (11732532_at) / Fold change /veh JSRP1 (11732532_at) / RFU KRTAP10-11 (11738290_x_at) / Fold change /veh KRTAP10-11 (11738290_x_at) / RFU MYO3A (11730013_a_at) / Fold change /veh MYO3A (11730013_a_at) / RFU EBF3 (11725865_a_at) / Fold change /veh EBF3 (11725865_a_at) / RFU CAMK2N1 (11719241_x_at) / Fold change /veh CAMK2N1 (11719241_x_at) / RFU C5orf56 (11738088_a_at) / Fold change /veh C5orf56 (11738088_a_at) / RFU OLFML3 (11715873_a_at) / Fold change /veh OLFML3 (11715873_a_at) / RFU LOC100653217 /// NTM (11731650_a_at) / Fold change /veh LOC100653217 /// NTM (11731650_a_at) / RFU MAPK11 (11762145_a_at) / Fold change /veh MAPK11 (11762145_a_at) / RFU FIZ1 (11724087_x_at) / Fold change /veh FIZ1 (11724087_x_at) / RFU OASL (11726364_x_at) / Fold change /veh OASL (11726364_x_at) / RFU SOX15 (11748057_x_at) / Fold change /veh SOX15 (11748057_x_at) / RFU CD79A (11719716_a_at) / Fold change /veh CD79A (11719716_a_at) / RFU HIST1H1D (11736915_at) / Fold change /veh HIST1H1D (11736915_at) / RFU CASKIN2 (11723855_a_at) / Fold change /veh CASKIN2 (11723855_a_at) / RFU LOC730098 (11760151_x_at) / Fold change /veh LOC730098 (11760151_x_at) / RFU OR4N2 (11742367_at) / Fold change /veh OR4N2 (11742367_at) / RFU PRRT2 (11749266_a_at) / Fold change /veh PRRT2 (11749266_a_at) / RFU SNX32 (11753110_a_at) / Fold change /veh SNX32 (11753110_a_at) / RFU CDHR5 (11726645_a_at) / Fold change /veh CDHR5 (11726645_a_at) / RFU RCAN1 (11760418_a_at) / Fold change /veh RCAN1 (11760418_a_at) / RFU FAM167A (11723789_a_at) / Fold change /veh FAM167A (11723789_a_at) / RFU FAM26E (11764081_at) / Fold change /veh FAM26E (11764081_at) / RFU ISYNA1 (11749810_s_at) / Fold change /veh ISYNA1 (11749810_s_at) / RFU ACY1 (11761880_at) / Fold change /veh ACY1 (11761880_at) / RFU 11764098_at / Fold change /veh 11764098_at / RFU SAMD14 (11745864_x_at) / Fold change /veh SAMD14 (11745864_x_at) / RFU NPB (11741838_a_at) / Fold change /veh NPB (11741838_a_at) / RFU TMPRSS6 (11731388_a_at) / Fold change /veh TMPRSS6 (11731388_a_at) / RFU KRTAP10-2 (11738614_at) / Fold change /veh KRTAP10-2 (11738614_at) / RFU ARHGAP8 /// PRR5-ARHGAP8 (11727945_x_at) / Fold change /veh ARHGAP8 /// PRR5-ARHGAP8 (11727945_x_at) / RFU KRTAP5-7 /// NADSYN1 (11734609_at) / Fold change /veh KRTAP5-7 /// NADSYN1 (11734609_at) / RFU RASL12 (11751679_a_at) / Fold change /veh RASL12 (11751679_a_at) / RFU CDKN2B (11736163_a_at) / Fold change /veh CDKN2B (11736163_a_at) / RFU PRF1 (11729649_at) / Fold change /veh PRF1 (11729649_at) / RFU, ZNF638 /// ZNF638-IT1 / Fold change vs veh, ZNF638 /// ZNF638-IT1 / RFU, PANK3 / Fold change vs veh, PANK3 / RFU, SH3YL1 / Fold change vs veh, SH3YL1 / RFU, ZEB2 / Fold change vs veh, ZEB2 / RFU, NRIP1 / Fold change vs veh, NRIP1 / RFU, PTTG1IP / Fold change vs veh, PTTG1IP / RFU, CAPN2 / Fold change vs veh, CAPN2 / RFU, MED14 / Fold change vs veh, MED14 / RFU, SNORA58 / Fold change vs veh, SNORA58 / RFU, C1orf63 / Fold change vs veh, C1orf63 / RFU, LRRFIP1 / Fold change vs veh, LRRFIP1 / RFU, NDUFAF7 / Fold change vs veh, NDUFAF7 / RFU, SLC12A2 / Fold change vs veh, SLC12A2 / RFU, IBTK / Fold change vs veh, IBTK / RFU, ESF1 / Fold change vs veh, ESF1 / Fold change vs veh, TMEM50B / RFU, TAOK1 / Fold change vs veh, TAOK1 / RFU, ACBD3 / Fold change vs veh, ACBD3 / RFU, TMA16 / Fold change vs veh, TMA16 / RFU, RWDD3 / Fold change vs veh, RWDD3 / RFU, BCAT1 / Fold change vs veh, BCAT1 / RFU, EDEM3 / Fold change vs veh, EDEM3 / RFU, TMEM33 / Fold change vs veh, TMEM33 / RFU, WDR75 / Fold change vs veh, WDR75 / RFU, AHCTF1 / Fold change vs veh, AHCTF1 / RFU, TFRC / Fold change vs veh, TFRC / RFU, ZDHHC17 / Fold change vs veh, ZDHHC17 / RFU, NOM1 / Fold change vs veh, NOM1 / RFU, ARL8B / Fold change vs veh, ARL8B / RFU, ZBTB11 / Fold change vs veh, ZBTB11 / RFU, TAMM41 / Fold change vs veh, TAMM41 / RFU, KIAA1704 /// LOC100996395 / Fold change vs veh, KIAA1704 /// LOC100996395 / RFU, ING1 / Fold change vs veh, ING1 / RFU, TRMT61B / Fold change vs veh, TRMT61B / RFU, FUBP3 / Fold change vs veh, FUBP3 / RFU, TP53 / Fold change vs veh, TP53 / RFU, TNKS2 / Fold change vs veh, TNKS2 / RFU, ZFP14 / Fold change vs veh, ZFP14 / RFU, ACTR2 / Fold change vs veh, ACTR2 / RFU, PPP3R1 / Fold change vs veh, PPP3R1 / RFU, PIK3R1 / Fold change vs veh, PIK3R1 / RFU, HNRNPA1 / Fold change vs veh, HNRNPA1 / RFU, RNF170 / Fold change vs veh, RNF170 / RFU, ZNF28 / Fold change vs veh, ZNF28 / RFU, RNGTT / Fold change vs veh, RNGTT / RFU, OGT / Fold change vs veh, OGT / RFU, BRD1 / Fold change vs veh, BRD1 / RFU, MARS / Fold change vs veh, MARS / RFU, ZNF655 / Fold change vs veh, ZNF655 / RFU, FAHD1 / Fold change vs veh, FAHD1 / RFU, BDP1 / Fold change vs veh, BDP1 / RFU, LRRCC1 / Fold change vs veh, LRRCC1 / RFU, ARID1A / Fold change vs veh, ARID1A / RFU, ZNF146 / Fold change vs veh, ZNF146 / RFU, ZNF330 / Fold change vs veh, ZNF330 / RFU, GPN3 / Fold change vs veh, GPN3 / RFU, C9orf123 / Fold change vs veh, C9orf123 / RFU, N4BP2L2 / Fold change vs veh, N4BP2L2 / RFU, ARFIP1 / Fold change vs veh, ARFIP1 / RFU, FAM179B / Fold change vs veh, FAM179B / RFU, BCL10 / Fold change vs veh, BCL10 / RFU, UHRF1BP1L / Fold change vs veh, UHRF1BP1L / RFU, BET1 / Fold change vs veh, BET1 / RFU, CNOT2 / Fold change vs veh, CNOT2 / RFU, ZNF268 / Fold change vs veh, ZNF268 / Fold change vs veh, ZNF507 / RFU, DGCR2 / Fold change vs veh, DGCR2 / RFU, WDSUB1 / Fold change vs veh, WDSUB1 / Fold change vs veh, HSP90B1 /// MIR3652 / RFU, ADSS / Fold change vs veh, ADSS / RFU, GK / Fold change vs veh, GK / RFU, ZNF148 / Fold change vs veh, ZNF148 / RFU, TAF9 / Fold change vs veh, TAF9 / RFU, SLC1A5 / Fold change vs veh, SLC1A5 / RFU, SLMO2 / Fold change vs veh, SLMO2 / RFU, ABCC4 / Fold change vs veh, ABCC4 / RFU, LOC101060439 /// RAP1B / Fold change vs veh, LOC101060439 /// RAP1B / RFU, RFX7 / Fold change vs veh, RFX7 / RFU, GTPBP10 / Fold change vs veh, GTPBP10 / RFU, CNEP1R1 / Fold change vs veh, CNEP1R1 / RFU, BIVM-ERCC5 /// ERCC5 / Fold change vs veh, BIVM-ERCC5 /// ERCC5 / RFU, ILF3 / Fold change vs veh, ILF3 / RFU 11762660_at / Fold change /veh 11762660_at / RFU VCAN (11757783_s_at) / Fold change /veh VCAN (11757783_s_at) / RFU DDX43 (11728927_at) / Fold change /veh DDX43 (11728927_at) / RFU KRT8 (11758188_x_at) / Fold change /veh KRT8 (11758188_x_at) / RFU NKD1 (11759106_at) / Fold change /veh NKD1 (11759106_at) / RFU SRD5A1 (11742802_a_at) / Fold change /veh SRD5A1 (11742802_a_at) / RFU TPSAB1 /// TPSB2 (11721975_s_at) / Fold change /veh TPSAB1 /// TPSB2 (11721975_s_at) / RFU GSTM3 (11746129_a_at) / Fold change /veh GSTM3 (11746129_a_at) / RFU IL23R (11737362_x_at) / Fold change /veh IL23R (11737362_x_at) / RFU TMEM51 (11727254_a_at) / Fold change /veh TMEM51 (11727254_a_at) / RFU PIWIL2 (11732686_x_at) / Fold change /veh PIWIL2 (11732686_x_at) / RFU ORM1 (11744905_x_at) / Fold change /veh ORM1 (11744905_x_at) / RFU CCDC152 (11743942_at) / Fold change /veh CCDC152 (11743942_at) / RFU ECM1 (11717891_a_at) / Fold change /veh ECM1 (11717891_a_at) / RFU IL23R (11748794_a_at) / Fold change /veh IL23R (11748794_a_at) / RFU TNFAIP8L3 (11732012_x_at) / Fold change /veh TNFAIP8L3 (11732012_x_at) / RFU MBOAT4 (11741988_at) / Fold change /veh MBOAT4 (11741988_at) / RFU 11764193_at / Fold change /veh 11764193_at / RFU TMEM53 (11763286_at) / Fold change /veh TMEM53 (11763286_at) / RFU MAGEB2 (11727129_at) / Fold change /veh MAGEB2 (11727129_at) / RFU TMEM200A (11744735_a_at) / Fold change /veh TMEM200A (11744735_a_at) / RFU CCDC152 (11751479_a_at) / Fold change /veh CCDC152 (11751479_a_at) / RFU FAM211A (11726209_a_at) / Fold change /veh FAM211A (11726209_a_at) / RFU RGS16 (11746705_a_at) / Fold change /veh RGS16 (11746705_a_at) / RFU VCAN (11755009_s_at) / Fold change /veh VCAN (11755009_s_at) / RFU RHOB (11743442_s_at) / Fold change /veh RHOB (11743442_s_at) / RFU RGS16 (11720943_a_at) / Fold change /veh RGS16 (11720943_a_at) / RFU RGS16 (11720944_at) / Fold change /veh RGS16 (11720944_at) / RFU, VPS4B / Fold change vs veh, VPS4B / RFU, CREB1 / Fold change vs veh, CREB1 / RFU, DNAJC13 / Fold change vs veh, DNAJC13 / RFU, GNAQ / Fold change vs veh, GNAQ / RFU, CDK5R1 / Fold change vs veh, CDK5R1 / RFU, ZRANB3 / Fold change vs veh, ZRANB3 / RFU, CUL4A / Fold change vs veh, CUL4A / RFU, CCNY / Fold change vs veh, CCNY / RFU, UFL1 / Fold change vs veh, UFL1 / RFU, COG3 / Fold change vs veh, COG3 / RFU, DIAPH2 / Fold change vs veh, DIAPH2 / RFU, SKA2 / Fold change vs veh, SKA2 / RFU, AFF3 / Fold change vs veh, AFF3 / RFU, LMF1 / Fold change vs veh, LMF1 / RFU, IPO11 / Fold change vs veh, IPO11 / RFU, DFFB / Fold change vs veh, DFFB / RFU, FOXP1 / Fold change vs veh, FOXP1 / RFU, CARD8 / Fold change vs veh, CARD8 / RFU, STRN3 / Fold change vs veh, STRN3 / RFU, ADK / Fold change vs veh, ADK / RFU, RASSF2 / Fold change vs veh, RASSF2 / RFU, WIPF1 / Fold change vs veh, WIPF1 / RFU, LARP1B / Fold change vs veh, LARP1B / RFU, RASA1 / Fold change vs veh, RASA1 / RFU, RB1 / Fold change vs veh, RB1 / RFU, PPFIA1 / Fold change vs veh, PPFIA1 / RFU, MAT2A / Fold change vs veh, MAT2A / RFU, CCT5 / Fold change vs veh, CCT5 / RFU, WDR92 / Fold change vs veh, WDR92 / RFU, CUX1 / Fold change vs veh, CUX1 / RFU, TTC7A / Fold change vs veh, TTC7A / RFU, TMEM135 / Fold change vs veh, TMEM135 / RFU, DEPTOR / Fold change vs veh, DEPTOR / RFU, CPM / Fold change vs veh, CPM / RFU, DNAJB6 / Fold change vs veh, DNAJB6 / RFU, CACNA2D3 / Fold change vs veh, CACNA2D3 / RFU, DTX4 / Fold change vs veh, DTX4 / RFU, TFCP2 / Fold change vs veh, TFCP2 / RFU, GMCL1 /// GMCL1P1 / Fold change vs veh, GMCL1 /// GMCL1P1 / RFU, AEBP2 / Fold change vs veh, AEBP2 / RFU, SNHG1 /// SNORD22 /// SNORD25 /// SNORD26 /// SNORD27 /// SNORD28 /// SNORD29 /// SNORD31 / Fold change vs veh, SNHG1 /// SNORD22 /// SNORD25 /// SNORD26 /// SNORD27 /// SNORD28 /// SNORD29 /// SNORD31 / Fold change (Aza/veh), C12orf56 (ProbeSet 11735607_a_at) / Fold change (ACY-1035/veh), C12orf56 (ProbeSet 11735607_a_at) / Fold change (Aza/veh), FGFR1OP (ProbeSet 11751329_s_at) / Fold change (ACY-1035/veh), FGFR1OP (ProbeSet 11751329_s_at) / Fold change (Aza/veh), VPS36 (ProbeSet 11739960_a_at) / Fold change (ACY-1035/veh), VPS36 (ProbeSet 11739960_a_at) / RFU SYPL1 (11715823_x_at) / Fold change /veh SYPL1 (11715823_x_at) / RFU IGFBP7 (11715501_s_at) / Fold change /veh IGFBP7 (11715501_s_at) / RFU REEP3 (11722064_at) / Fold change /veh REEP3 (11722064_at) / RFU IGLL1 (11728026_x_at) / Fold change /veh IGLL1 (11728026_x_at): dose or concentration left out as unconfirmed
# Conditions: MV-4-11 cells, 48 hours
compound,measurement,value
Nc1ccc(-c2cccs2)cc1NC(=O)c1ccc2c(c1)cc(C1CC1)n2CCN1CCOCC1 [ACY-1035],RFU GSTM3 (11746129_a_at),10.76 RFU
